# Experimental data reported in PMC5534107, “Sensitization of ASIC3 by proteinase-activated receptor 2 signaling contributes to acidosis-induced nociception” (Journal of Neuroinflammation, 2017).
# Tested on: rats
# Experiment: Nociceptive behavior (flinches) induced by intraplantar acetic acid in rats
# Assay type: in vivo, rat
# Conditions: capsazepine 100 μM, n = 10
# Method: Rats were placed in a 30 × 30 × 30 cm Plexiglas chamber and allowed to habituate for at least 30 min before nociceptive behavior experiments. A blind experiment was carried out. Separate groups of rats were coded and pretreated with 20 μl capsazepine (100 μM) together with vehicle and different dosages of PAR2-AP, FSLLRY-NH2, or APETx2 in the ipsilateral hind paw before injection of acetic acid. […] And nociceptive behavior (that is, number of flinches) was counted over a 5-min period starting immediately after the injection.
# We finally ascertain whether PAR2-AP facilitates pain-related behaviors through interacting with ASIC3 in vivo. Acetic acid (0.6%) was injected into the right hind paws of rats and measured the number of flinches that the animals spent licking and/or lifting the injected paw. Intraplantar injection of acetic acid elicits an intense flinch/shaking response which mainly occurred during 0–5 min after injection of acetic acid. […] However, the low dose (1 μg) of PAR2-AP had no effect on the acidosis-induced nocifensive behaviors (Bonferroni’s post hoc test, P > 0.1, n = 10). In addition, the exacerbating effect of 10 μg PAR2-AP on acidosis-induced nocifensive behaviors was blocked by co-administration of 20 μg FSLLRY-NH2, a selective PAR2 antagonist (Bonferroni’s post hoc test, P < 0.01, compared with 10 μg PAR2-AP alone, n = 10; Fig. 6a).
substance,measurement,setting,value
2-furoyl-LIGRLO-NH2 [PAR2-AP],"effect on acidosis-induced nocifensive behaviors (number of flinches), low dose","PAR2-AP 1 μg intraplantar, 5 min before acetic acid 0.6%, 20 μl, flinches over 5 min, P > 0.1",no effect
same,"acetic acid-induced number of flinches vs acetic acid alone, medium dose","PAR2-AP 3 μg intraplantar, P < 0.05",significantly greater
same,"acetic acid-induced number of flinches vs acetic acid alone, high dose","PAR2-AP 10 μg intraplantar, P < 0.01",significantly greater
